This is an account of results in PMC6155387, “Alkoxy and Enediyne Derivatives Containing 1,4-Benzoquinone Subunits—Synthesis and Antitumor Activity” (Molecules : A Journal of Synthetic Chemistry and Natural …, 2017).

Structures are written as SMILES. Read-outs that look alike come from different tables or passages of the source.

Broadly, the IC50 is the concentration at which inhibition is half-maximal.

The subject of experiment [1] is HFF-1. The settings on record: normal fibroblasts HFF-1, cited from earlier work; for IC50 ± SD HFF-1: Neg: negative in the concentration used, footnote a; for IC50: footnote b, read-out: IC50 ± SD HFF-1.
The test system of experiment [2] is C-32. The note with it: melanoma C-32, read-out: IC50 ± SD C-32, cited from earlier work.
The test system of experiment [3] is SNB-19. The note with it: glioblastoma SNB-19, read-out: IC50 ± SD SNB-19, cited from earlier work.
In experiment [4] the test system is MDA-MB-231. The note with it: breast cancer MDA-MB-231, read-out: IC50 ± SD MDA-MB-231, cited from earlier work.
The subject of experiment [5] is SNB-19. Description: antiproliferative activity (WST-1), glioblastoma SNB-19. The experiment is classed as cell-based, human. The note with it: for SI (IC50 HFF-1/IC50 cancer line) SNB-19: selectivity index, HFF-1 vs SNB-19; for IC50: glioblastoma SNB-19, 72 h, WST-1, Neg: negative in the concentration used, read-out: IC50 ± SD SNB-19. As to the method: (§1) Biological activity of the tested compounds was assessed in vitro using cultured cell lines: melanoma C-32 (ATCC, Rockville, MD, USA), glioblastoma SNB-19 (DSMZ, Braunschweig, Germany), breast cancer MDA-MB-231 (ATCC, Rockville, MD, USA), and normal human fibroblasts derived from foreskin HFF-1 (ATCC, Rockville, MD, USA). Cell cultures were maintained using DMEM (Lonza, Basel, Switzerland) supplemented with 10% fetal bovine serum (FBS) (Biological Industries Cromwell, CT, USA) and a mixture of penicillin (10,000 U/mL) and streptomycin (10 mg/mL) (Lonza, Basel, Switzerland).
(§2) Cells were cultured using 96-well plates (Nunc Thermo Fisher Scientific, Waltham, MA, USA). Cells were seeded (5 × 10^3 cells/well) and incubated for 24 h in a standard incubator (37 °C, 5% CO2, relative humidity 95%). Subsequently, the medium was replaced with a fresh aliquot containing an examined compound (0.01; 0.05; 0.1; 0.5; 1; 5; 10; 50; 100 µg/mL), and cells were further incubated for another 72 h. Upon the conclusion of incubation, a CVDE test (Aniara, West Chester, OH, USA) using crystal violet was performed to assess the relative number of cells in the culture. A WST-1 test (Roche) was performed to examine the metabolic activity of cells and test for the presence of LDH in the medium (Roche Diagnostics GmbH, Mannheim, Germany), allowing for the assessment of the relative number of dead cells (i.e., cytotoxicity of the examined compound). UVM340 microplate readers (BIOGENET, Józefów, Poland) were used to read absorbance values.
(§3) WST-1 colorimetric assay for cell proliferation (Roche Diagnostics GmbH, Mannheim, Germany, reagent kit cat. 11644807001) is based on the viable cells’ ability to cleave the bright red-colored stable tetrazolium salt WST-1 to dark red soluble formazan. This bioreduction occurs under the influence of mitochondrial dehydrogenases (depends mostly on production of NAD(P)H in viable cells). The amount of formazan dye formed correlates directly with the number of metabolically active cells in the culture and is measured by absorbance (λ = 450 nm) following 1 h incubation of cells with the reagent.
(Tetrazolium assays rely on reduction of a dye to a coloured formazan, in cell work by metabolically active cells.)

For experiment [6], the system named is C-32. Kind of experiment: antiproliferative activity (WST-1), melanoma C-32. Type of experiment: cell-based, human. The settings on record: for SI (IC50 HFF-1/IC50 cancer line) C-32: selectivity index, HFF-1 vs C-32; for IC50: melanoma C-32, 72 h, WST-1, Neg: negative in the concentration used, read-out: IC50 ± SD C-32. As to the method:
as §1, §2, §3

The test system of experiment [7] is MDA-MB-231. Kind of experiment: antiproliferative activity (WST-1), breast cancer MDA-MB-231. The experiment is classed as cell-based, human. The note with it: for SI (IC50 HFF-1/IC50 cancer line) MDA-MB-231: selectivity index, HFF-1 vs MDA-MB-231; for IC50: breast cancer MDA-MB-231, 72 h, WST-1, Neg: negative in the concentration used, read-out: IC50 ± SD MDA-MB-231. As to the method: as §1, §2, §3

In experiment [8] the test system is HFF-1. Kind of experiment: antiproliferative activity (WST-1), normal fibroblasts HFF-1. The settings on record: normal fibroblasts HFF-1, 72 h, Neg: negative in the concentration used; for IC50: read-out: IC50 ± SD HFF-1. The experiment is classed as cell-based, human. The protocol: as §1, §2, §3

Take `CCCOC1=C(Cl)C(=O)c2cccnc2C1=O` [Compound 7]: the “IC50 ± SD HFF-1” value in the experiment on HFF-1 [1] was “Neg”. Further, the IC50 in the experiment with C-32 [2] (footnote a) is 0.2 ± 0.1 µM; with SNB-19 [3] (footnote a), 0.4 ± 0.1 µM; with MDA-MB-231 [4] (footnote a), 22.4 ± 2.7 µM.

For `C=CCOC1=C(Cl)C(=O)c2cccnc2C1=O` [Compound 8], the “IC50 ± SD HFF-1” value in the experiment on HFF-1 [1] is “Neg”. Moreover, the figures for the IC50 in the experiment with C-32 [2] (footnote a), with SNB-19 [3] (footnote a) and in the experiment with MDA-MB-231 [4] (footnote a) were 0.28 ± 0.1 µM, 0.3 ± 0.1 µM and 17.2 ± 2.8 µM, respectively.

On to `C#CCOC1=C(Cl)C(=O)c2cccnc2C1=O` [Compound 9], for which the IC50 with HFF-1 [1] is 3.3 ± 0.3 µM; in the experiment on C-32 [2] (footnote b), 0.32 ± 0.1 µM; with SNB-19 [3] (footnote b) it was 20.4 ± 0.2 µM; in the experiment with MDA-MB-231 [4] (footnote b) it was 21.4 ± 3.4 µM. Further, in the experiment on SNB-19 [5], the “SI (IC50 HFF-1/IC50 cancer line) SNB-19” value amounted to 0.16. Also, the “SI (IC50 HFF-1/IC50 cancer line) C-32” value in the experiment on C-32 [6] was determined as 10.31. The “SI (IC50 HFF-1/IC50 cancer line) MDA-MB-231” value in the experiment on MDA-MB-231 [7] is listed as 0.15.

For `CCCOC1=C(OCCC)C(=O)c2ncccc2C1=O` [Compound 16], the “IC50 ± SD HFF-1” value in the experiment with HFF-1 [1] is reported as “Neg”. Further, the IC50 was 1.1 ± 0.1 µM with C-32 [2] (footnote a), 0.7 ± 0.02 µM in the experiment on SNB-19 [3] (footnote a) and 3 ± 0.3 µM in the experiment with MDA-MB-231 [4] (footnote a).

As for `C=CCOC1=C(OCC=C)C(=O)c2ncccc2C1=O` [Compound 17], the “IC50 ± SD HFF-1” value in the experiment with HFF-1 [1] is recorded as “Neg”. The IC50 in the experiment with C-32 [2] (footnote a) was 1.5 ± 0.1 µM; in the experiment on SNB-19 [3] (footnote a), 0.2 ± 0.1 µM; in the experiment with MDA-MB-231 [4] (footnote a), 12.6 ± 2.7 µM.

`C#CCOC1=C(OCC#C)C(=O)c2ncccc2C1=O` [Compound 18]: the IC50 was 12.6 ± 0.9 µM with HFF-1 [1], 0.3 ± 0.1 µM with C-32 [2] (footnote b), 21.7 ± 1.1 µM in the experiment on SNB-19 [3] (footnote b) and 1.8 ± 0.1 µM in the experiment on MDA-MB-231 [4] (footnote b). Also, the “SI (IC50 HFF-1/IC50 cancer line) SNB-19” value in the experiment with SNB-19 [5] amounted to 0.58. Besides, the “SI (IC50 HFF-1/IC50 cancer line) C-32” value with C-32 [6] was found to be 50.40. In addition, the “SI (IC50 HFF-1/IC50 cancer line) MDA-MB-231” value in the experiment with MDA-MB-231 [7] turned out to be 7.00.

Take `O=C1C(Cl)=C(OCC#CC=CC#CCO)C(=O)c2ncccc21` [Compound 24, 6-Chloro-7-(8-hydroxy-4-octen-2,6-diynyloxy)-5,8-quinolinedione]: the IC50 is 2.4 ± 0.1 µM in the experiment with SNB-19 [5] (Homo sapiens); 3.1 ± 0.1 µM with C-32 [6] (Homo sapiens, C32); 110 ± 8.1 µM with MDA-MB-231 [7] (Homo sapiens). The “times more activity against the C-32 cell compared to cisplatin” value with C-32 [6] (C-32, ratio of IC50 vs cisplatin) was determined as 5 times. In the experiment on C-32 [6] (C-32, ratio of IC50 vs compound 22), the “times more activity against the C-32 cell compared to (Z)-4-octen-2,6-diyn-1,8-diol (22)” value turned out to be 51 times. Also, the “IC50 ± SD HFF-1” value in the experiment on HFF-1 [8] is given as “Neg”.

For `Cc1ccc2c(n1)C(=O)C(OCC#CC=CC#CCO)=C(Cl)C2=O` [Compound 25, 6-Chloro-7-(8-hydroxy-4-octen-2,6-diynyloxy)-2-methyl-5,8-quinolinedione], the IC50 with SNB-19 [5] (Homo sapiens) was determined as 169 ± 4.8 µM; in the experiment with C-32 [6] (Homo sapiens, C32), 116 ± 2.9 µM; in the experiment with MDA-MB-231 [7] (Homo sapiens), 16.5 ± 1.9 µM; in the experiment on HFF-1 [8] (Homo sapiens), 27.1 ± 1.1 µM. Besides, the “SI (IC50 HFF-1/IC50 cancer line) SNB-19” value in the experiment with SNB-19 [5] is reported as 0.16. In addition, in the experiment on C-32 [6], the “SI (IC50 HFF-1/IC50 cancer line) C-32” value was 0.23.

With `O=C1C2=C(OCC#C/C=C\C#CCO2)C(=O)c2ccccc21` [Compound 26, 8-Octen-6,10-diynyl-1,4-dioxocyclododeca[2,3-g]-1,4-naphthoquinon], the half-inhibitory concentration (IC50) with SNB-19 [5] (Homo sapiens) was 22.8 ± 1.4 µM; in the experiment on C-32 [6] (Homo sapiens, C32), 30.3 ± 3.1 µM; with MDA-MB-231 [7] (Homo sapiens) it was 2 ± 0.2 µM; with HFF-1 [8] (Homo sapiens) it was 17.5 ± 1.3 µM. Further, in the experiment with SNB-19 [5], the “SI (IC50 HFF-1/IC50 cancer line) SNB-19” value is on record as 0.77. For the same compound, the “SI (IC50 HFF-1/IC50 cancer line) C-32” value with C-32 [6] is 0.58.

As to `O=C1C2=C(OCC#C/C=C\C#CCO2)C(=O)c2ncccc21` [Compound 27, 8-Octen-6,10-diynyl-1,4-dioxocyclododeca[2,3-g]-5,8-quinolinedione], the IC50 with SNB-19 [5] (Homo sapiens) was 31.5 ± 2.5 µM; in the experiment on C-32 [6] (Homo sapiens, C32) it was 48.4 ± 8.9 µM; in the experiment with MDA-MB-231 [7] (Homo sapiens) it was 25.1 ± 2.4 µM; in the experiment with HFF-1 [8] (Homo sapiens), 13 ± 3.4 µM. The “SI (IC50 HFF-1/IC50 cancer line) SNB-19” value in the experiment on SNB-19 [5] amounted to 0.41. In addition, the “SI (IC50 HFF-1/IC50 cancer line) C-32” value with C-32 [6] is 0.27.

As to `Cc1ccc2c(n1)C(=O)C1=C(OCC#C/C=C\C#CCO1)C2=O` [Compound 28, 8-Octen-6,10-diynyl-1,4-8-octen-6,10-diynyl-1,4-dioxocyclododeca[2,3-g]-2-methyl-5,8-quinolinedione], the IC50 in the experiment on SNB-19 [5] (Homo sapiens) turned out to be 157 ± 5.7 µM; in the experiment on C-32 [6] (Homo sapiens, C32), 155 ± 3.7 µM; in the experiment on MDA-MB-231 [7] (Homo sapiens), 174 ± 5.9 µM; in the experiment on HFF-1 [8] (Homo sapiens) it was 27.8 ± 1.2 µM. Moreover, in the experiment on SNB-19 [5], the “SI (IC50 HFF-1/IC50 cancer line) SNB-19” value was 0.18. The “SI (IC50 HFF-1/IC50 cancer line) C-32” value in the experiment on C-32 [6] stood at 0.18.

In the case of `N.N.[Cl][Pt][Cl]` [cisplatin, reference compound], the half-maximal inhibitory concentration (IC50) is 18.9 ± 0.4 µM with SNB-19 [5], 16.4 ± 1.2 µM with C-32 [6], 25.5 ± 0.2 µM in the experiment with MDA-MB-231 [7] and 9.1 ± 1.8 µM in the experiment on HFF-1 [8]. Besides, in the experiment with SNB-19 [5], the “SI (IC50 HFF-1/IC50 cancer line) SNB-19” value was determined as 0.48. In the experiment with C-32 [6], the “SI (IC50 HFF-1/IC50 cancer line) C-32” value is listed as 0.55.
